{"source": "patent US20180289689A1", "about": "“USE OF CCR5 ANTAGONISTS ALONE OR IN COMBINATION THERAPY FOR THE TREATMENT OF CANCER” (RUPRECHT-KARLS-UNIVERSITÄT HEIDELBERG, priority 2014, published 2018)", "key": {"[1]": {"tested_on": "colorectal cancer liver metastases", "assay": "Tumor explant model from freshly resected colorectal cancer liver metastases", "assay_type": "cell-based, human", "details": "FIG. 1", "source_text": "Tumor explant models. Tumor explant models were generated from freshly resected colorectal cancer liver metastases. Explanted tissue specimens were cut into three equal parts, placed in unconditioned medium and either treated with DMSO or Maraviroc (in DMSO) or without any addition. The explants were then harvested and subjected to histological analyses (see FIG. 1) and multiplex protein analysis (see FIG. 3)."}, "[2]": {"tested_on": "colorectal cancer patients with hepatic metastases", "assay": "MARACON-001 phase I trial, Maraviroc monotherapy", "assay_type": "in vivo, human", "details": "for Objective response (RECIST)/ other responses: Patient 4, colorectal cancer (metastatic: lung and liver), monotherapy", "source_text": "Clinical trial. A trial in colorectal cancer patients with hepatic metastases was initiated. […] In the trial, patients receive Maraviroc daily for two months. Safety and feasibility are the primary endpoints of this ongoing trial. The trial is being conducted according to the Declaration of Helsinki and relevant International Conference on Harmonization Good Clinical Practice guidelines and with approval from the ethics committee of the University of Heidelberg. […] All provided written informed consent before participating in this study. The overall workflow of the trial is depicted in FIG. 2.\nAssessment of proliferation in histology samples. Briefly cryo sections were fixed with 4% paraformaldehyde (PFA, Sigma Aldrich, Germany). The sections were blocked with 10% normal goat serum (Vector, USA). […] The slides were incubated with a secondary antibody (rabbit-anti-mouse IgG, Bond Polymer Refine Detection System, Leica, Germany) for 8 minutes at room temperature. Further amplification of the signal was achieved through incubation with a third antibody, conjugated with horse radish peroxidase and coupled to dextrane molecules in large numbers, for 8 minutes at room temperature (Poly-HRP-mouse-anti-rabbit IgG, Bond Polymer Refine Detection System, Leica, Germany). The antigen detection was performed by a color reaction with 3,3-di-amino-benzidine (DAB chromogen, Bond Polymer Refine Detection System, Leica, Germany). The sections were counterstained with hematoxylin (Bond Polymer Refine Detection System, Leica, Germany) and mounted with Aquatex (Merck, Germany). Assessment was performed with the Visiomorph Software Package (Visiopharm, Denmark) to quantify positive tumor cells."}}}
{"smiles": "Cc1nnc(C(C)C)n1[C@@H]1C[C@H]2CC[C@@H](C1)N2CC[C@H](NC(=O)C1CCC(F)(F)CC1)c1ccccc1", "note": "[Maraviroc, 4,4-difluoro-N-{(1S)-3-[3-(3-isopropyl-5-methyl-4H-1,2,4-triazol-4-yl)-8-azabicyclo[3.2.1]oct-8-yl]-1-phenylpropyl}cyclohexanecarboxamide]", "values": [{"measurement": "tumor cell death upon inhibition of CCR5", "setting": "[1]; explants treated with Maraviroc (in DMSO)", "value": "clear tumor cell death"}, {"measurement": "effects in the adjacent liver", "setting": "[1]; explants treated with Maraviroc", "value": "no effects"}, {"measurement": "histology of treated section (hemalaun counterstaining)", "setting": "[1]; treated section vs untreated control section", "value": "Large areas of necrosis and only few remaining tumor cells"}, {"measurement": "tumor cell death in patients (biopsies)", "setting": "[2]; Maraviroc 300 mg/bid, second biopsy after 8-10 days", "value": "tumor cell death"}, {"measurement": "Objective response (RECIST)/ other responses", "setting": "[2]; liver", "value": "−10% (liver)"}, {"measurement": "Objective response (RECIST)/ other responses", "setting": "[2]; lung", "value": "−50% (lung),"}, {"measurement": "radiologically measured area of necrosis of liver metastases", "setting": "[2]; before vs after therapy, percentage of necrotic area of reference lesion, FIG. 5", "value": "increase in necrotic area"}, {"measurement": "proliferation activity (Ki67 percentage) of tumor cells", "setting": "[2]; before vs under treatment (8-10 days, second biopsy), FIG. 4", "value": "Reductions"}, {"measurement": "key cytokines for tumor growth, chemotherapy resistance or angiogenesis", "setting": "[2]; day 0 (pretreatment) vs day 9 of treatment, FIG. 3", "value": "Marked Changes"}, {"measurement": "tolerability", "setting": "[2]; patients", "value": "well-tolerated"}, {"measurement": "side effects", "setting": "[2]; patients, so far", "value": "does not have significant side effects"}]}
